Experimental data reported in PubChem BioAssay (NCI).
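Tested at 5 concentrations; 48 h exposure; 96-well plates; endpoints linearly interpolated, else capped at highest concentration. Abbreviation: GI50, concentration required for 50% inhibition of growth. Definition used: TGI = concentration required for complete inhibition of growth.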

Columns and labels:
Experiment in all cases: growth of human tumour cells (NCI), 48 h
786-0 renal = tested on: 786-0 renal
A498 renal = tested on: A498 renal
A549 NSCLC = tested on: A549 NSCLC
ACHN renal = tested on: ACHN renal
BT-549 breast = tested on: BT-549 breast
CAKI-1 renal = tested on: CAKI-1 renal
CCRF-CEM leukemia = tested on: CCRF-CEM leukemia
COLO 205 colon = tested on: COLO 205 colon
DU-145 prostate = tested on: DU-145 prostate
EKVX NSCLC = tested on: EKVX NSCLC
HCC-2998 colon = tested on: HCC-2998 colon
HCT-116 colon = tested on: HCT-116 colon
HCT-15 colon = tested on: HCT-15 colon
HL-60(TB) leukemia = tested on: HL-60(TB) leukemia
HOP-62 NSCLC = tested on: HOP-62 NSCLC
HOP-92 NSCLC = tested on: HOP-92 NSCLC
HS 578T breast = tested on: HS 578T breast
HT29 colon = tested on: HT29 colon
IGROV1 ovarian = tested on: IGROV1 ovarian
K-562 leukemia = tested on: K-562 leukemia
KM12 colon = tested on: KM12 colon
LOX IMVI melanoma = tested on: LOX IMVI melanoma
M14 melanoma = tested on: M14 melanoma
MALME-3M melanoma = tested on: MALME-3M melanoma
MCF7 breast = tested on: MCF7 breast
MDA-MB-231 breast = tested on: MDA-MB-231 breast
MDA-MB-435 = tested on: MDA-MB-435
MOLT-4 leukemia = tested on: MOLT-4 leukemia
NCI-H226 lung = tested on: NCI-H226 lung

## C#Cc1ccc(C(=O)NCc2ccc(/C=C/C(=O)c3nccn3C)cc2)cc1
786-0 renal
  GI50: 4.48 µM
  TGI: > 14.3 µM
A498 renal
  GI50: 2.12 µM
  TGI: > 14.3 µM
A549 NSCLC
  GI50: 4.6 µM
  TGI: > 14.3 µM
ACHN renal
  GI50: 4.8 µM
  TGI: > 14.3 µM
BT-549 breast
  GI50: 4.06 µM
  TGI: > 14.3 µM
CAKI-1 renal
  GI50: 5.97 µM
  TGI: > 14.3 µM
CCRF-CEM leukemia
  GI50: 3.68 µM
  TGI: > 14.3 µM
COLO 205 colon
  GI50: 3.6 µM
  TGI: 12.7 µM
DU-145 prostate
  GI50: 4.83 µM
  TGI: > 14.3 µM
EKVX NSCLC
  GI50: 5.22 µM
  TGI: > 14.3 µM
HCC-2998 colon
  GI50: 3.32 µM
  TGI: 10.7 µM
HCT-116 colon
  GI50: 4.56 µM
  TGI: > 14.3 µM
HCT-15 colon
  GI50: 2.39 µM
  TGI: > 14.3 µM
HL-60(TB) leukemia
  GI50: 3.5 µM
  TGI: > 14.3 µM
HOP-62 NSCLC
  GI50: 4.33 µM
  TGI: > 14.3 µM
HOP-92 NSCLC
  GI50: 3.77 µM
  TGI: > 14.3 µM
HS 578T breast
  GI50: 4.75 µM
  TGI: > 14.3 µM
HT29 colon
  GI50: 4.61 µM
  TGI: > 14.3 µM
IGROV1 ovarian
  GI50: 3.77 µM
  TGI: > 14.3 µM
K-562 leukemia
  GI50: 3.21 µM
  TGI: > 14.3 µM
KM12 colon
  GI50: 2.67 µM
  TGI: 8.57 µM
LOX IMVI melanoma
  GI50: 0.543 µM
  TGI: 2.4 µM
M14 melanoma
  GI50: 7.91 µM
  TGI: > 14.3 µM
MALME-3M melanoma
  GI50: > 14.3 µM
  TGI: > 14.3 µM
MCF7 breast
  GI50: 2.7 µM
  TGI: > 14.3 µM
MDA-MB-231 breast
  GI50: 3.97 µM
  TGI: > 14.3 µM
MDA-MB-435
  GI50: 4.15 µM
  TGI: > 14.3 µM
MOLT-4 leukemia
  GI50: 4.2 µM
  TGI: > 14.3 µM
NCI-H226 lung
  GI50: 5.03 µM
